Test results reported in ChEMBL document CHEMBL4316583, “In Vitro and in Vivo Antitumor Effects of Plant-Derived Miliusanes and Their Induction of Cellular Senescence” (J Med Chem, 2019).
The source made the active and inactive calls. The rule behind the calls is not given here.

What was measured:
A-375 [1] = assay: Cytotoxicity against human A375 cells assessed as cell growth inhibition after 48 hrs by sulforhodamine B assay; assay type: functional, cell-based; settings: A-375, 48 h
HCT-116 [2] = assay: Antitumor activity against human HCT116 cells xenografted in nude BALB/c mouse assessed as reduction in volume of growing subcutaneous tumor at 10 mg/kg, ip administered twice a week for 3 weeks; assay type: functional, organism-based
HCT-116 [3] = assay: Antitumor activity against human HCT116 cells xenografted in nude BALB/c mouse assessed as tumor growth inhibition at 10 mg/kg, ip administered twice a week for 3 weeks relative to control; assay type: functional; settings: HCT-116, ip, 504 h, read-out: TGI
HeLa [4] = assay: Antitumor activity against human HeLa cells xenografted in nude BALB/c mouse assessed as tumor growth inhibition at 10 mg/kg, ip administered every other day for 21 days and observed for 6 days before sacrifice relative to control; assay type: functional; settings: read-out: TGI
HeLa [5] = assay: Antitumor activity against human HeLa cells xenografted in nude BALB/c mouse assessed as suppression of excised tumor size at 10 mg/kg, ip administered every other day for 21 days and observed for 6 days before sacrifice relative to control; assay type: functional
[6] = Toxicity in nude BALB/c mouse xenografted with human A375 cells assessed as body weight loss at 10 mg/kg, ip measured on day 17 and 21; assay type: organism-based; settings: in vivo
[7] = Toxicity in BALB/c mouse assessed as mortality at 5 mg/kg, ip dosed daily and measured on day 25; assay type: organism-based; settings: in vivo
[8] = Toxicity in BALB/c mouse assessed as mortality at 2.5 mg/kg, ip administered daily for 28 days; assay type: organism-based; settings: in vivo, read-out: Activity
A2780 = assay: Growth inhibition human A2780 cells after 72 hrs by MTS assay; assay type: functional, cell-based; settings: A2780, 72 h
HCT-116 [9] = assay: Induction of apoptosis in human HCT116 cells assessed as viable cells at 5.86 nM after 48 hrs by annexin V/propidium iodide-double staining based flow cytometry (reference value: 88.3%); assay type: functional; settings: HCT-116, 48 h, read-out: Activity
HCT-116 [10] = assay: Induction of apoptosis in human HCT116 cells assessed as early apoptotic cells at 5.86 nM after 48 hrs by annexin V/propidium iodide-double staining based flow cytometry (reference value: 4.8%); assay type: functional
HCT-116 [11] = assay: Induction of apoptosis in human HCT116 cells assessed as late apoptotic cells at 5.86 nM after 48 hrs by annexin V/propidium iodide-double staining based flow cytometry (reference value: 4.6%); assay type: functional
HCT-116 [12] = assay: Induction of apoptosis in human HCT116 cells assessed as necrotic cells at 5.86 nM after 48 hrs by annexin V/propidium iodide-double staining based flow cytometry (reference value: […]); assay type: functional
[13] = Toxicity in human HCT116 cells xenografted nude BALB/c mouse assessed as tumor growth inhibition at 7.5 mg/kg, ip administered daily for 11 days; assay type: organism-based; settings: in vivo, 264 h
HCT-116 [14] = assay: Cytotoxicity against human HCT116 cells assessed as cell growth inhibition after 48 hrs by sulforhodamine B assay; assay type: functional, cell-based; settings: HCT-116, 48 h
HCT-116 [15] = assay: Cytotoxicity against human HCT116 cells assessed as cell growth inhibition after 24 hrs by sulforhodamine B assay; assay type: functional, cell-based; settings: HCT-116, 24 h
HCT-116 [16] = assay: Antiproliferative activity against human HCT116 cells assessed as inhibition of colony formation at 1.77 uM after 14 days by crystal violet-staining based assay; assay type: functional, cell-based
HCT-116 [17] = assay: Antitumor activity against human HCT116 cells xenografted in nude BALB/c mouse assessed as tumor growth inhibition at 20 mg/kg, ip administered daily for 21 days relative to control; assay type: functional; settings: HCT-116, ip, 504 h, read-out: TGI
HCT-116 [18] = assay: Antitumor activity against human HCT116 cells xenografted in nude BALB/c mouse assessed as tumor growth inhibition at 10 mg/kg, ip administered daily for 21 days relative to control; assay type: functional; settings: HCT-116, ip, 504 h, read-out: TGI
HCT-116 [19] = assay: Antitumor activity against human HCT116 cells xenografted in nude BALB/c mouse assessed as tumor growth inhibition at 20 mg/kg, ip administered every other day for 21 days relative to control; assay type: functional; settings: HCT-116, ip, 504 h, read-out: TGI
[20] = Toxicity in nude BALB/c mouse xenografted with human HCT116 cells assessed as body weight loss at 30 mg/kg, ip administered daily for 3 weeks; assay type: organism-based; settings: in vivo, 504 h
[21] = Toxicity in nude BALB/c mouse xenografted with human HCT116 cells assessed as body weight loss at 10 to 20 mg/kg, ip measured on day 10 and 11; assay type: organism-based; settings: in vivo
[22] = Toxicity in nude BALB/c mouse xenografted with human HCT116 cells assessed as body weight loss at 40 mg/kg, administered every other day for 21 days; assay type: organism-based; settings: in vivo, 504 h
HeLa [23] = assay: Antitumor activity against human HeLa cells xenografted in nude BALB/c mouse assessed as tumor growth inhibition at 30 mg/kg, ip administered every other day for 21 days and observed for 6 days before sacrifice relative to control; assay type: functional; settings: read-out: TGI
HeLa [24] = assay: Antitumor activity against human HeLa cells xenografted in nude BALB/c mouse assessed as tumor growth inhibition at 20 mg/kg, ip administered every other day for 21 days and observed for 6 days before sacrifice relative to control; assay type: functional; settings: read-out: TGI
HeLa [25] = assay: Antitumor activity against human HeLa cells xenografted in nude BALB/c mouse assessed as suppression of excised tumor size at 30 mg/kg, ip administered every other day for 21 days and observed for 6 days before sacrifice relative to control; assay type: functional
HeLa [26] = assay: Antitumor activity against human HeLa cells xenografted in nude BALB/c mouse assessed as suppression of excised tumor size at 20 mg/kg, ip administered every other day for 21 days and observed for 6 days before sacrifice relative to control; assay type: functional
[27] = Toxicity in nude BALB/c mouse xenografted with human HeLa cells assessed as body weight loss at 20 mg/kg, administered every other day for 21 days; assay type: organism-based; settings: in vivo, 504 h
[28] = Toxicity in nude BALB/c mouse xenografted with human HeLa cells assessed as body weight loss at 30 mg/kg, administered every other day for 21 days; assay type: organism-based; settings: in vivo, 504 h
A-375 [29] = assay: Antitumor activity against human A375 cells xenografted in nude BALB/c mouse assessed as tumor growth inhibition at 15 mg/kg, ip administered every other day for 23 days relative to control; assay type: functional; settings: A-375, ip, 552 h, read-out: TGI
A-375 [30] = assay: Antitumor activity against human A375 cells xenografted in nude BALB/c mouse assessed as tumor growth inhibition at 7.5 mg/kg, ip administered every other day for 23 days relative to control; assay type: functional; settings: A-375, ip, 552 h, read-out: TGI
A-375 [31] = assay: Antitumor activity against human A375 cells xenografted in nude BALB/c mouse assessed as suppression of tumor volume at 15 mg/kg, ip administered every other day for 23 days relative to control; assay type: functional; settings: A-375, ip, 552 h, read-out: TGI
A-375 [32] = assay: Antitumor activity against human A375 cells xenografted in nude BALB/c mouse assessed as suppression of tumor volume at 7.5 mg/kg, ip administered every other day for 23 days relative to control; assay type: functional; settings: A-375, ip, 552 h, read-out: TGI
[33] = Toxicity in nude BALB/c mouse xenografted with human A375 cells assessed as body weight loss at 15 mg/kg, ip administered every other day for 23 days; assay type: organism-based; settings: in vivo, 552 h
HCT-116 [34] = assay: Induction of cellular senescence in human HCT116 cells at 0.22 uM after 48 hrs by SA-beta-gal-staining based assay; assay type: functional, cell-based
HCT-116 [35] = assay: Induction of cellular senescence in human HCT116 cells assessed as up-regulation of TP53 gene at 0.22 uM after 48 hrs by qPCR assay; assay type: functional, cell-based
HCT-116 [36] = assay: Induction of cellular senescence in human HCT116 cells assessed as up-regulation of CDKN1A gene at 0.22 uM after 48 hrs by qPCR assay; assay type: functional, cell-based
HCT-116 [37] = assay: Induction of cellular senescence in human HCT116 cells assessed as up-regulation of p21 protein expression at 0.05 to 0.2 ug/ml after 48 hrs by Western blot analysis; assay type: functional, cell-based
HCT-116 [38] = assay: Induction of cellular senescence in human HCT116 cells assessed as up-regulation of p21 protein expression at 0.22 uM after 48 hrs in presence of p21 siRNA by SA-beta-gal-staining based Western blot analysis; assay type: functional, cell-based
HT-29 = assay: Growth inhibition human HT-29 cells after 72 hrs by MTS assay; assay type: functional, cell-based
HCT-116 [39] = assay: Antiproliferative activity against human HCT116 cells xenografted in BALB/c mouse at 20 mg/kg, administered every other day for 3 weeks by Ki67-staining based assay; assay type: functional, organism-based
[40] = Toxicity in nude BALB/c mouse xenografted with human HCT116 cells assessed as body weight loss at 10 mg/kg, ip administered daily for 3 weeks; assay type: organism-based; settings: in vivo, 504 h
HCT-116 [41] = assay: Induction of cellular senescence in human HCT116 cells assessed as up-regulation of p16 protein expression at 0.05 to 0.2 ug/ml after 48 hrs by Western blot analysis; assay type: functional, cell-based
Mus musculus [42] = assay: Induction of cellular senescence in BALB/c mouse xenografted with human HCT116 cells assessed as up-regulation of p21 protein expression at 20 mg/kg, administered every other day for 3 weeks by immunohistochemical analysis; assay type: functional, organism-based
Mus musculus [43] = assay: Induction of cellular senescence in BALB/c mouse xenografted with human HCT116 cells assessed as up-regulation of p16 protein expression at 20 mg/kg, administered every other day for 3 weeks by immunohistochemical analysis; assay type: functional, organism-based
Mus musculus [44] = assay: Effect on p27 protein expression in BALB/c mouse xenografted with human HCT116 cells at 20 mg/kg, administered every other day for 3 weeks by immunohistochemical analysis; assay type: functional, organism-based

With `CC(=O)O[C@H]1C(=O)[C@@]2(C)[C@H]([C@H](OC(=O)c3ccccc3)[C@]3(O)C[C@H](OC(=O)[C@H](O)[C@@H](NC(=O)c4ccccc4)c4ccccc4)C(C)=C1C3(C)C)[C@]1(OC(C)=O)CO[C@@H]1C[C@@H]2O` [PACLITAXEL] the IC50 (A-375 [1]) was 2 nM, the Activity (HCT-116 [2]) was “Active” and the inhibition in vivo at 10 mg/kg (HCT-116 [3]) was 52.6%. For the same molecule, the inhibition in vivo at 10 mg/kg (HeLa [4]) was 46.5%, the Activity (HeLa [5]) was 48.9% and the Activity [6] was “Toxic”. For the same molecule, the Activity [7] was “Toxic”, the mortality at 672 h [8] was 30% and the IC50 (A2780) was 1.5 nM. The viability at 0.00586 µM (HCT-116 [9]) was 67.3%, the Activity (HCT-116 [10]) was 14.1% and the Activity (HCT-116 [11]) was 9.4%. The Activity (HCT-116 [12]) was 9.2% and the Activity [13] was “Toxic”.

For `CC(C)=CCC/C(C)=C/[C@H]1OC(=O)C[C@]12C[C@H](OC(=O)c1ccc(N(C)C)cc1)C=CC2=O`, the IC50 (HCT-116 [14]) was 1690 nM, the IC50 (HCT-116 [15]) was 2570 nM and the Activity (HCT-116 [16]) was “Active”. For the same molecule, the inhibition in vivo at 20 mg/kg (HCT-116 [17]) was 57.1%, the inhibition in vivo at 10 mg/kg (HCT-116 [18]) was 51% and the inhibition in vivo at 20 mg/kg (HCT-116 [19]) was 40 to 48.3%. For the same molecule, the Activity [20] was 2 g, the Activity [21] was “Toxic” and the Activity [22] was “Non-Toxic”. It also gave an inhibition in vivo at 30 mg/kg (HeLa [23]) of 75.9%, an inhibition in vivo at 20 mg/kg (HeLa [24]) of 54.7% and an inhibition in vivo at 10 mg/kg (HeLa [4]) of 17.2%. It also gave an Activity (HeLa [25]) of 76.9%, an Activity (HeLa [26]) of 55.4% and an Activity (HeLa [5]) of 29.6%. The Activity [27] was 0.9 g, the Activity [28] was 2.2 g and the inhibition in vivo at 15 mg/kg (A-375 [29]) was 19.4%. The inhibition in vivo at 7.5 mg/kg (A-375 [30]) was 20.6%, the inhibition in vivo at 15 mg/kg (A-375 [31]) was 39.4% and the inhibition in vivo at 7.5 mg/kg (A-375 [32]) was 39.6%. The Activity [33] was 1.5 g, the Activity (HCT-116 [34]) was “Active” and the Activity (HCT-116 [35]) was “Active”. For the same molecule, the Activity (HCT-116 [36]) was “Active”, the Activity (HCT-116 [37]) was “Active” and the Activity (HCT-116 [38]) was “inactive”. The “growth inhibition (GI)” value (HT-29) was “Active”, the Activity (HCT-116 [39]) was “Active” and the Activity [40] was “Non-Toxic”. For the same molecule, the Activity (HCT-116 [41]) was “Active”, the Activity (Mus musculus [42]) was “Active” and the Activity (Mus musculus [43]) was “Active”. For the same molecule, the Activity (Mus musculus [44]) was “inactive”.
